# US11807644B2 (PMV Pharmaceuticals, Inc., priority 2020, dated 2023)
# Target: T1, recombinant His-tag Y220C p53 DBD protein (Homo sapiens, UniProt P04637, Y220C)
# T1 construct: recombinant His-tag Y220C p53 DBD protein (amino acids #˜94-312)
# Test: In vitro DNA binding activity assay (TR-FRET): binding of His-tag Y220C p53 DBD to biotin-labeled consensus DNA
# Assay type: biochemical
# Details: SC150 = concentration to increase DNA binding by […], His-tag Y220C p53 DBD, biotin-labeled consensus DNA
row,Structure (SMILES),Y220C SC150 (μM)
1,"CN1CC[C@@H](Nc2cccc3c2cc(-c2noc(CNC(=O)c4cnn(C5(C)CC5)c4)n2)n3CC(F)(F)F)[C@@H](F)C1 [Compound 448B, N-{[3-(4-{[(3S,4R)-3-fluoro-1-methylpiperidin-4-yl]amino}-1-(2,2,2-trifluoroethyl)-1H-indol-2-yl)-1,2,4-oxadiazol-5-yl]methyl}-1-(1-methylcyclopropyl)-1H-pyrazole-4-carboxamide]",* (* = 0 μM ≤ SC150 < 0.1 μM)
2,"CO[C@H]1C[C@H](n2ccc(C(=O)NCc3nc(-c4cc5c(N[C@@H]6CCN(C)C[C@@H]6F)cccc5n4CC(F)(F)F)no3)c2)C1 [Compound 449B, N-{[3-(4-{[(3S,4R)-3-fluoro-1-methylpiperidin-4-yl]amino}-1-(2,2,2-trifluoroethyl)-1H-indol-2-yl)-1,2,4-oxadiazol-5-yl]methyl}-1-[(1r,3r)-3-methoxycyclobutyl]-1H-pyrrole-3-carboxamide]",* (* = 0 μM ≤ SC150 < 0.1 μM)
3,"CN1CC[C@@H](Nc2cccc3c2cc(-c2noc(CNC(=O)c4ccn(C5CC(F)(F)C5)c4)n2)n3CC(F)(F)F)[C@@H](F)C1 [Compound 451B, 1-(3,3-difluorocyclobutyl)-N-{[3-(4-{[(3S,4R)-3-fluoro-1-methylpiperidin-4-yl]amino}-1-(2,2,2-trifluoroethyl)-1H-indol-2-yl)-1,2,4-oxadiazol-5-yl]methyl}-1H-pyrrole-3-carboxamide]",* (* = 0 μM ≤ SC150 < 0.1 μM)
4,"CN1CC[C@@H](Nc2cccc3c2cc(-c2noc(CNc4nccc5c4cnn5C)n2)n3CC(F)(F)F)[C@@H](F)C1 [Compound 452B, N-[(3S,4R)-3-fluoro-1-methylpiperidin-4-yl]-2-{5-[({1-methyl-1H-pyrazolo[^4,3-c]pyridin-4-yl}amino)methyl]-1,2,4-oxadiazol-3-yl}-1-(2,2,2-trifluoroethyl)-1H-indol-4-amine]",* (* = 0 μM ≤ SC150 < 0.1 μM)
5,"CN1CC[C@@H](Nc2cccc3c2cc(-c2noc(CNC(=O)c4cnc(N5CCOCC5)s4)n2)n3CC(F)(F)F)[C@@H](F)C1 [Compound 453B, N-{[3-(4-{[(3S,4R)-3-fluoro-1-methylpiperidin-4-yl]amino}-1-(2,2,2-trifluoroethyl)-1H-indol-2-yl)-1,2,4-oxadiazol-5-yl]methyl}-2-(morpholin-4-yl)-1,3-thiazole-5-carboxamide]",* (* = 0 μM ≤ SC150 < 0.1 μM)
6,"CN1CC[C@@H](Nc2cccc3c2cc(-c2noc(CNc4nccc5c4ccn5C)n2)n3CC(F)(F)F)[C@@H](F)C1 [Compound 454B, N-[(3S,4R)-3-fluoro-1-methylpiperidin-4-yl]-2-{5-[({1-methyl-1H-pyrrolo[3,2-c]pyridin-4-yl}amino)methyl]-1,2,4-oxadiazol-3-yl}-1-(2,2,2-trifluoroethyl)-1H-indol-4-amine]",* (* = 0 μM ≤ SC150 < 0.1 μM)
7,"CN1CC[C@@H](Nc2cccc3c2cc(-c2noc(CNc4nccc5sccc45)n2)n3CC(F)(F)F)[C@@H](F)C1 [Compound 457B, N-[(3S,4R)-3-fluoro-1-methylpiperidin-4-yl]-2-{5-[({thieno[3,2-c]pyridin-4-yl}amino)methyl]-1,2,4-oxadiazol-3-yl}-1-(2,2,2-trifluoroethyl)-1H-indol-4-amine]",* (* = 0 μM ≤ SC150 < 0.1 μM)
8,"COCc1ccc(C(=O)NCc2nc(-c3cc4c(N[C@@H]5CCN(C)C[C@@H]5F)cccc4n3CC(F)(F)F)no2)s1 [Compound 458B, N-{[3-(4-{[(3S,4R)-3-fluoro-1-methylpiperidin-4-yl]amino}-1-(2,2,2-trifluoroethyl)-1H-indol-2-yl)-1,2,4-oxadiazol-5-yl]methyl}-5-(methoxymethyl)thiophene-2-carboxamide]",* (* = 0 μM ≤ SC150 < 0.1 μM)
9,"CN1CC[C@@H](Nc2cccc3c2cc(-c2noc(CNC(=O)c4cnc(N5CCCC5)s4)n2)n3CC(F)(F)F)[C@@H](F)C1 [Compound 459B, N-{[3-(4-{[(3S,4R)-3-fluoro-1-methylpiperidin-4-yl]amino}-1-(2,2,2-trifluoroethyl)-1H-indol-2-yl)-1,2,4-oxadiazol-5-yl]methyl}-2-(pyrrolidin-1-yl)-1,3-thiazole-5-carboxamide]",* (* = 0 μM ≤ SC150 < 0.1 μM)
10,"CN1CC[C@@H](Nc2cccc3c2cc(-c2noc(CNC(=O)c4csc(N5CCCC5)n4)n2)n3CC(F)(F)F)[C@@H](F)C1 [Compound 460B, N-{[3-(4-{[(3S,4R)-3-fluoro-1-methylpiperidin-4-yl]amino}-1-(2,2,2-trifluoroethyl)-1H-indol-2-yl)-1,2,4-oxadiazol-5-yl]methyl}-2-(pyrrolidin-1-yl)-1,3-thiazole-4-carboxamide]",* (* = 0 μM ≤ SC150 < 0.1 μM)
11,"CN1CC[C@@H](Nc2cccc3c2cc(-c2noc(CNc4cccc5c4ccn5C)n2)n3CC(F)(F)F)[C@@H](F)C1 [Compound 462B, N-[(3S,4R)-3-fluoro-1-methylpiperidin-4-yl]-2-(5-{[(1-methyl-1H-indol-4-yl)amino]methyl}-1,2,4-oxadiazol-3-yl)-1-(2,2,2-trifluoroethyl)-1H-indol-4-amine]",* (* = 0 μM ≤ SC150 < 0.1 μM)
12,"CN1CC[C@@H](Nc2cccc3c2cc(-c2noc(CNc4cccc5c4cnn5C)n2)n3CC(F)(F)F)[C@@H](F)C1 [Compound 463B, N-{[3-(4-{[(3S,4R)-3-fluoro-1-methylpiperidin-4-yl]amino}-1-(2,2,2-trifluoroethyl)-1H-indol-2-yl)-1,2,4-oxadiazol-5-yl]methyl}-1-methyl-1H-indazol-4-amine]",* (* = 0 μM ≤ SC150 < 0.1 μM)
13,"COCc1cc(C(=O)NCc2nc(-c3cc4c(N[C@@H]5CCN(C)C[C@@H]5F)cccc4n3CC(F)(F)F)no2)cs1 [Compound 464B, N-{[3-(4-{[(3S,4R)-3-fluoro-1-methylpiperidin-4-yl]amino}-1-(2,2,2-trifluoroethyl)-1H-indol-2-yl)-1,2,4-oxadiazol-5-yl]methyl}-5-(methoxymethyl)thiophene-3-carboxamide]",* (* = 0 μM ≤ SC150 < 0.1 μM)
14,"CN1CC[C@@H](Nc2cccc3c2cc(-c2noc(CNC(=O)c4csc(N5CCOCC5)n4)n2)n3CC(F)(F)F)[C@@H](F)C1 [Compound 465B, N-{[3-(4-{[(3S,4R)-3-fluoro-1-methylpiperidin-4-yl]amino}-1-(2,2,2-trifluoroethyl)-1H-indol-2-yl)-1,2,4-oxadiazol-5-yl]methyl}-2-(morpholin-4-yl)-1,3-thiazole-4-carboxamide]",* (* = 0 μM ≤ SC150 < 0.1 μM)
15,CN1CC[C@@H](Nc2cccc3c2cc(-c2noc(CNC(=O)c4csc(CN5CCCC5)c4)n2)n3CC(F)(F)F)[C@@H](F)C1 [Compound 466B],* (* = 0 μM ≤ SC150 < 0.1 μM)
16,COCC1(n2ccc(C(=O)NCc3nc(-c4cc5c(N[C@@H]6CCN(C)C[C@@H]6F)cccc5n4CC(F)(F)F)no3)c2)CCC1 [Compound 471B],* (* = 0 μM ≤ SC150 < 0.1 μM)
17,"CN1CC[C@@H](Nc2cccc3c2cc(-c2noc(CNC(=O)c4ccn(C5(CO)CC5)c4)n2)n3CC(F)(F)F)[C@@H](F)C1 [Compound 472B, N-{[3-(4-{[(3S,4R)-3-fluoro-1-methylpiperidin-4-yl]amino}-1-(2,2,2-trifluoroethyl)-1H-indol-2-yl)-1,2,4-oxadiazol-5-yl]methyl}-1-[1-(hydroxymethyl)cyclopropyl]-1H-pyrrole-3-carboxamide]",* (* = 0 μM ≤ SC150 < 0.1 μM)
18,"CN1CC[C@@H](Nc2cccc3c2cc(-c2noc(CNC(=O)c4cnc(C5(C)CCOCC5)s4)n2)n3CC(F)(F)F)[C@@H](F)C1 [Compound 473B, N-{[3-(4-{[(3S,4R)-3-fluoro-1-methylpiperidin-4-yl]amino}-1-(2,2,2-trifluoroethyl)-1H-indol-2-yl)-1,2,4-oxadiazol-5-yl]methyl}-2-(4-methyloxan-4-yl)-1,3-thiazole-5-carboxamide]",* (* = 0 μM ≤ SC150 < 0.1 μM)
19,"CN1CC[C@@H](Nc2cccc3c2cc(-c2noc(CNC(=O)c4csc(C5(C)CCOCC5)n4)n2)n3CC(F)(F)F)[C@@H](F)C1 [Compound 474B, N-{[3-(4-{[(3S,4R)-3-fluoro-1-methylpiperidin-4-yl]amino}-1-(2,2,2-trifluoroethyl)-1H-indol-2-yl)-1,2,4-oxadiazol-5-yl]methyl}-2-(4-methyloxan-4-yl)-1,3-thiazole-4-carboxamide]",* (* = 0 μM ≤ SC150 < 0.1 μM)
20,"COCC1(n2ccc(C(=O)NCc3nc(-c4cc5c(N[C@@H]6CCNC[C@@H]6F)cccc5n4CC(F)(F)F)no3)c2)CC1 [Compound 475B, N-{[3-(4-{[(3S,4R)-3-fluoropiperidin-4-yl]amino}-1-(2,2,2-trifluoroethyl)-1H-indol-2-yl)-1,2,4-oxadiazol-5-yl]methyl}-1-[1-(methoxymethyl)cyclopropyl]-1H-pyrrole-3-carboxamide]",* (* = 0 μM ≤ SC150 < 0.1 μM)
21,"COCC1(n2ccc(C(=O)NCc3nc(-c4cc5c(N[C@H]6CCNC[C@H]6F)cccc5n4CC(F)(F)F)no3)c2)CC1 [Compound 476B, N-{[3-(4-{[(3R,4S)-3-fluoropiperidin-4-yl]amino}-1-(2,2,2-trifluoroethyl)-1H-indol-2-yl)-1,2,4-oxadiazol-5-yl]methyl}-1-[1-(methoxymethyl)cyclopropyl]-1H-pyrrole-3-carboxamide]",* (* = 0 μM ≤ SC150 < 0.1 μM)
22,"CC1(n2ccc(C(=O)NCc3nc(-c4cc5c(N[C@@H]6CCNC[C@@H]6F)cccc5n4CC(F)(F)F)no3)c2)CCOCC1 [Compound 477B, N-{[3-(4-{[(3S,4R)-3-fluoropiperidin-4-yl]amino}-1-(2,2,2-trifluoroethyl)-1H-indol-2-yl)-1,2,4-oxadiazol-5-yl]methyl}-1-(4-methyloxan-4-yl)-1H-pyrrole-3-carboxamide]",* (* = 0 μM ≤ SC150 < 0.1 μM)
23,"CC1(n2ccc(C(=O)NCc3nc(-c4cc5c(N[C@H]6CCNC[C@H]6F)cccc5n4CC(F)(F)F)no3)c2)CCOCC1 [Compound 478B, N-{[3-(4-{[(3R,4S)-3-fluoropiperidin-4-yl]amino}-1-(2,2,2-trifluoroethyl)-1H-indol-2-yl)-1,2,4-oxadiazol-5-yl]methyl}-1-(4-methyloxan-4-yl)-1H-pyrrole-3-carboxamide]",* (* = 0 μM ≤ SC150 < 0.1 μM)
